Source: article PMC9296036, “A peptide interfering with the dimerization of oncogenic KITENIN protein and its stability suppresses colorectal tumour progression” (Clinical and Translational Medicine, 2022)
Ends that are not written are not given here.

Tested on: CT-26/KITENIN-V5 tumours
Experiment: Syngeneic subcutaneous tumour model, CT-26/KITENIN-V5 cells in BALB/c mice
Type: in vivo, mouse
Settings: CT-26/KITENIN-V5, KDIP 1 and 5 mg/kg intravenously every other day for 2 weeks, dose dependent
Protocol: The CT‐26 cell/syngeneic mouse model was used to investigate the in vivo effects of KDIP on colorectal tumourigenesis, as it is reported that a syngeneic mouse tumour model is good for testing the anticancer effects of candidate substances.[25], [26] Male Balb/c mice (5‐week old) were purchased from DaMul Science, Korea and acclimated for 1 week prior to subcutaneous injection of syngeneic CT‐26/EV (3 × 10^6) or CT‐26/KITENIN cells (1 × 10^6) into the dorsum. Tumour volume was calculated using the following equation: V = 1/2 × a × b […], where a and b are the longest and shortest diameters of the tumour (in millimetres), respectively. Tumour volume was measured every other day for 14 days to verify the effects of KDIP. […]
Effect of KAI1 C‐terminal interacting tetraspanin (KITENIN) dimerization‐interfering peptide (KDIP) on tumour growth and metastasis in in vivo mouse model of colorectal cancer (CRC). […] For the evaluation of metastasis, total fluorescence emitted from liver nodules expressing iRFP was measured and counted (left panel) or metastatic tumour growth was counted as nodules that migrated to the surface of the liver, and a metastatic score was obtained by multiplying it with size (middle panel). Metastatic score or total fluorescence is represented as mean ± SEM. […]

YARVRRRGPRRWRLVSDEAV [KDIP]
tumour volume (in words): significantly reduced
